Data published in PMC11327140, “Selective inhibitor of sodium-calcium exchanger, SEA0400, affects NMDA receptor currents and abolishes their calcium-dependent block by tricyclic antidepressants” (Frontiers in Pharmacology, 2024).
Values joined by “and” are separate entries in the source; they are usually repeats but may differ in a detail not shown here. Equal values may be shown once. “Also recorded” adds a separate entry of the source.

What was measured:
[1] = target: NMDA receptor (NMDAR) currents (Rattus norvegicus, UniProt P35439+Q00959+Q00960); assay: Whole-cell patch-clamp recording of NMDA-activated currents in cortical neurons of primary culture; format: cell-based; conditions: for change of fraction of current blocked in the presence of SEA0400: 50 nM SEA0400, 10 µM KB-R7943, 10 µM ATL, 1 µM DES; for increase of IC50 for NMDAR inhibition in the presence of SEA0400: 50 nM SEA0400 versus control
[2] = test system: NCX; design: method as in Matsuda et al., 2001; conditions: ref Matsuda et al., 2001; read-out: IC50 for SEA0400 inhibition of NCX in neurons; cited from earlier work
[3] = test system: NMDAR currents; design: method as in Sibarov et al., 2015; conditions: 10 µM KB-R7943; ref Sibarov et al., 2015; cited from earlier work
[4] = test system: NMDAR channels; design: method as in MacDonald et al., 1991; conditions: ref MacDonald et al., 1991; cited from earlier work

Sequence of NMDA receptor (NMDAR) currents (Q00960 27-1482 limits assumed, other chains not shown): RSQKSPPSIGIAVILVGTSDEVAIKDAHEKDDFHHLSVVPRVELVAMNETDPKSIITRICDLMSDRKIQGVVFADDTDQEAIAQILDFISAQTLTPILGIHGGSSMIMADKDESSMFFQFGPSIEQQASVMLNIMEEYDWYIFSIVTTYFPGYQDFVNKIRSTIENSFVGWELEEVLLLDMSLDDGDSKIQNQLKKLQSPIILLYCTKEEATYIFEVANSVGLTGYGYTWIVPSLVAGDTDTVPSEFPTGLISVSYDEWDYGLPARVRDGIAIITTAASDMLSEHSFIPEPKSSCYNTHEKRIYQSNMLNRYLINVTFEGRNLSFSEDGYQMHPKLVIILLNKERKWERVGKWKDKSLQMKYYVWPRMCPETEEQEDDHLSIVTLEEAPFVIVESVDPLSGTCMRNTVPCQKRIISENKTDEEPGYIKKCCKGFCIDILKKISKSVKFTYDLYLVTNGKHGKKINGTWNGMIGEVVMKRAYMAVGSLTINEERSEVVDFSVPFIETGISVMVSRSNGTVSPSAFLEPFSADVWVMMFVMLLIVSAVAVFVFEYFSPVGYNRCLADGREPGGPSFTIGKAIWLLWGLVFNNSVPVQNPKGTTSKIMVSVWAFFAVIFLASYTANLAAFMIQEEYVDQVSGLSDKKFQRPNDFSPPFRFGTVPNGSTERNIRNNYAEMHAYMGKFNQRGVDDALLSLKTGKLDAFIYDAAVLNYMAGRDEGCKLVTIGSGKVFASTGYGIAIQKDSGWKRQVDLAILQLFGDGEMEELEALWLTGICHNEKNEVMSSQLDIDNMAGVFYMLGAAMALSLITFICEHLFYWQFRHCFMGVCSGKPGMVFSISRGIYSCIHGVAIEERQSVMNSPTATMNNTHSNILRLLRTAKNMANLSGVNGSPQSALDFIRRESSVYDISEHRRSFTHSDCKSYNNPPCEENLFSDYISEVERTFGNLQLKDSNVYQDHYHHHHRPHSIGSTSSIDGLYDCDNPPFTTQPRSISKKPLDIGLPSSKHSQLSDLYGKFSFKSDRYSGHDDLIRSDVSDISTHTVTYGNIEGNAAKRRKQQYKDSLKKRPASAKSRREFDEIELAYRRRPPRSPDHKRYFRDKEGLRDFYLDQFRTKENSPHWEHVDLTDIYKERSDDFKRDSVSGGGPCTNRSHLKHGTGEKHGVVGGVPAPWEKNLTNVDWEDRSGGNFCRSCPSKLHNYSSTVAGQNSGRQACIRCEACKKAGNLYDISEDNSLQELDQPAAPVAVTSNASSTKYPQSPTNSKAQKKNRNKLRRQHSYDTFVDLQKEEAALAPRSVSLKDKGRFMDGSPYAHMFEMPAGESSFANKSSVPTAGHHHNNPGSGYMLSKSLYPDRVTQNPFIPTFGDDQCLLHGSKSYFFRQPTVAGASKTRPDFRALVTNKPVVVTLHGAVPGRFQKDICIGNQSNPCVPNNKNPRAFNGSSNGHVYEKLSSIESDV
Sequence of NMDA receptor (NMDAR) currents (Q00959 23-1464 limits assumed, other chains not shown): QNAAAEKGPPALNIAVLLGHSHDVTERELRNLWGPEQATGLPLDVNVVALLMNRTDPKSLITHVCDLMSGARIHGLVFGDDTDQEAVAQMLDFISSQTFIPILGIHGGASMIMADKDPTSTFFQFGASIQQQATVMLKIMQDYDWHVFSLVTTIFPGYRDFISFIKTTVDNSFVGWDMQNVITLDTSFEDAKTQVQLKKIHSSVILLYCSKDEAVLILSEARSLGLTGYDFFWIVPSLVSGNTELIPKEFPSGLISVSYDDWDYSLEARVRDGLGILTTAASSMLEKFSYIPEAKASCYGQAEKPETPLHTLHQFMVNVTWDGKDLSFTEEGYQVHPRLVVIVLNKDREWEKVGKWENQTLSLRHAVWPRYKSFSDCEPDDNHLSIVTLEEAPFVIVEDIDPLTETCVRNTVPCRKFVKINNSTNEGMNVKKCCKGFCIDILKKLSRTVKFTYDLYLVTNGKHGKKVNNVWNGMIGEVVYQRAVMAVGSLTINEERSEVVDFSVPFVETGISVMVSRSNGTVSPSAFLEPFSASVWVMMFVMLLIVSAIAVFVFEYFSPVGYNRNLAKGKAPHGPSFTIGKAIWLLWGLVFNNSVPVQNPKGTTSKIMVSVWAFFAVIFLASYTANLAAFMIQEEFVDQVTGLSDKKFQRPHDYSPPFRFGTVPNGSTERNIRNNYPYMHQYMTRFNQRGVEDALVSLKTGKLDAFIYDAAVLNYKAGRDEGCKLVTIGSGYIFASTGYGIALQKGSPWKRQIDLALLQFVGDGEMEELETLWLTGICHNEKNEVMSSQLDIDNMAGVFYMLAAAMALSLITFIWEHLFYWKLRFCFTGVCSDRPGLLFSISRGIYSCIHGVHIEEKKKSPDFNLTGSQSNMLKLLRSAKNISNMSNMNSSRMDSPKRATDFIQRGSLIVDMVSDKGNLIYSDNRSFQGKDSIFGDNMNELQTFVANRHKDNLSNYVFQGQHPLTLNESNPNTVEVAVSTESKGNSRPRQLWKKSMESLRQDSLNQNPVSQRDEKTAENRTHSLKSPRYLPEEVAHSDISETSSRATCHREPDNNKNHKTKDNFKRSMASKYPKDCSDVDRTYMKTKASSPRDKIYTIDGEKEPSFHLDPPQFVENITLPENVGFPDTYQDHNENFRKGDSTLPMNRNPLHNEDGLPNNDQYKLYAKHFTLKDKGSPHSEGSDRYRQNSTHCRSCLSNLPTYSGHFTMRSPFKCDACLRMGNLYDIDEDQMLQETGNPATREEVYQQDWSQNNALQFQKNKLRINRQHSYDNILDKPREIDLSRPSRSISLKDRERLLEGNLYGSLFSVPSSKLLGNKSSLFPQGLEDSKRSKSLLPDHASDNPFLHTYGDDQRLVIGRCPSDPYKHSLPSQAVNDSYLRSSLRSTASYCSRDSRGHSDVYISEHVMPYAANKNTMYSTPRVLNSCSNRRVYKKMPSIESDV

CN(C)CCC=C1c2ccccc2CCc2ccccc21 [ATL, amitriptyline]
change of fraction of current blocked in the presence of SEA0400 ([1]; 1 mM Ca2+, -70 mV): decreased | increase of IC50 for NMDAR inhibition in the presence of SEA0400 [1]: 23 fold | increase of IC50 for NMDAR inhibition in the presence of SEA0400 ([1]; listed as amitriptyline): about 20 fold

CNCCCN1c2ccccc2CCc2ccccc21 [DES, desipramine]
change of fraction of current blocked in the presence of SEA0400 ([1]; 1 mM Ca2+, -70 mV): decreased | increase of IC50 for NMDAR inhibition in the presence of SEA0400 [1]: ~16 fold | increase of IC50 for NMDAR inhibition in the presence of SEA0400 ([1]; listed as desipramine): about 20 fold

CCOc1ccc(Oc2ccc(OCc3cc(F)ccc3F)cc2)c(N)c1 [SEA0400]
decrease of decay time constant versus control ([1]; 50 nM SEA0400, 1 mM Ca2+): 2 fold | effect on NMDAR currents in BAPTA-loaded neurons ([1]; 50 nM SEA0400, 1 mM external Ca2+, neurons loaded with BAPTA): abolished the effect; also recorded: did not cause NMDAR inhibition | voltage dependence of decrease of steady-state amplitude ([1]; 50 nM SEA0400, -70 mV versus +30 mV, 1 mM Ca2+): did not depend on membrane voltage | effect on steady-state amplitude of NMDA-activated currents in Ca2+-free solution ([1]; 50 nM SEA0400, Ca2+ omitted from external solution, -70 mV): abolished the effect; also recorded: did not cause any decrease | IC50 ([1]; 2 mM Ca2+, -70 mV, 100 µM NMDA + 30 µM Gly, steady state, read-out: IC50 for SEA0400 inhibition of NMDA-activated currents): 27 nM and ~27 nM | decrease of steady-state amplitude of NMDAR currents (upper limit of effect) ([1]; SEA0400 itself, extracellular Ca2+ present): ≤ 30% | decay time constant of NMDAR current from peak to steady state ([1]; in the presence of 50 nM SEA0400, 1 mM Ca2+, -70 mV): 2.0 ± 0.2 s | IC50 [2]: 33 nM

N=C(N)SCCc1ccc(OCc2ccc([N+](=O)[O-])cc2)cc1 [KB-R7943]
change of fraction of current blocked in the presence of SEA0400 ([1]; 1 mM Ca2+, -70 mV): increased | decrease of NMDAR currents [3]: about 60%

C[C@]12N[C@H](Cc3ccccc31)c1ccccc12 [MK-801]
rate constant of dissociation from NMDAR channels [4]: ~0.003 s⁻¹

c1ccc(C2(N3CCCCC3)CCCCC2)cc1 [phencyclidine]
rate constant of dissociation from NMDAR channels [4]: about 0.03 s^-1
